Test results as given in ChEMBL document CHEMBL1132210, “Ligands for the tyrosine kinase p56lck SH2 domain: discovery of potent dipeptide derivatives with monocharged, nonhydrolyzable phosphate replacements” (J Med Chem, 1999).
Non-standard residues stand in square brackets, D forms with d. Residues, ends and D or L forms follow the SMILES beside them. Phe(4-CH2COOH) = N[C@@H](Cc1ccc(CC(=O)O)cc1)C(=O)O

molecular target: Tyrosine-protein kinase Lck (Homo sapiens, UniProt P06239); test: Binding affinity towards p56 Lck tyrosine kinase SH2 domain was determined by biological assay
Sequence (P06239 whole entry, the tested form may be a part): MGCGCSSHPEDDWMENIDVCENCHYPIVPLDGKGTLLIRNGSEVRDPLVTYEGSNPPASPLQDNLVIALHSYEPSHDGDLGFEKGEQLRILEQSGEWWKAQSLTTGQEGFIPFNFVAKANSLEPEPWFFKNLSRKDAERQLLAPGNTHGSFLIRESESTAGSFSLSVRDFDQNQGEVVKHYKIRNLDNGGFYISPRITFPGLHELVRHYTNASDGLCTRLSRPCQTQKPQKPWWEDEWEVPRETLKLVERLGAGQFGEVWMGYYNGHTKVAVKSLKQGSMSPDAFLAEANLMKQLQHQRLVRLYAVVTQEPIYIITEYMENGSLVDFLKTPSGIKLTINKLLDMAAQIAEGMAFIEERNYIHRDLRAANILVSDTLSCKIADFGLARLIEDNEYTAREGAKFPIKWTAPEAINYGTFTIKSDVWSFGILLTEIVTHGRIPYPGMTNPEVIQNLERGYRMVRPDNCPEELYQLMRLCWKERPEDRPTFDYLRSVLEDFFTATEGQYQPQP

Row | SMILES | Kd
1 | COc1ccc(CNC(=O)[C@H](CCC(=O)O)NC(=O)[C@H](Cc2ccc(NC(=O)C(=O)O)cc2)NC(=O)Cc2ccc3ccccc3c2)cc1 | 3 µM
2 | COc1ccc(CNC(=O)[C@H](CCC(=O)O)NC(=O)[C@H](Cc2ccc(OP(=O)(O)O)cc2)NC(=O)Cc2cccc3ccccc23)cc1 | 0.04 µM
3 | COc1ccc(CNC(=O)[C@H](CCC(=O)O)NC(=O)[C@H](Cc2ccc(C(=O)C(=O)O)cc2)NC(C)=O)cc1 | 65 µM
4 | COc1ccc(CNC(=O)[C@H](CCC(=O)O)NC(=O)[C@H](Cc2ccc(NC(=O)C(=O)O)cc2)NC(C)=O)cc1 | 42 µM
5 | COc1ccc(CNC(=O)[C@H](CCC(=O)O)NC(=O)[C@H](Cc2ccc(CC(=O)O)cc2)NC(=O)Cc2cccc3ccccc23)cc1 | 5 µM
6 | COc1ccc(CNC(=O)[C@H](CCC(=O)O)NC(=O)[C@H](Cc2ccc(C(F)(F)C(=O)O)cc2)NC(C)=O)cc1 | 166 µM
7 | COc1ccc(CNC(=O)[C@H](CCC(=O)O)NC(=O)[C@H](Cc2ccc(CCC(=O)O)cc2)NC(C)=O)cc1 | 184 µM
8 | COc1ccc(CNC(=O)[C@H](CCC(=O)O)NC(=O)[C@H](Cc2ccc(C(O)C(=O)O)cc2)NC(C)=O)cc1 (stereo partly specified) | 15 µM
9 | COc1ccc(CNC(=O)[C@H](CCC(=O)O)NC(=O)[C@H](Cc2ccc(NC(=O)C(=O)O)cc2)NC(=O)CCc2ccccc2)cc1 | 13 µM
10 | COc1ccc(CNC(=O)[C@H](CCC(=O)O)NC(=O)[C@H](Cc2ccc(CS(=O)(=O)O)cc2)NC(C)=O)cc1 | 25 µM
11 | COc1ccc(CNC(=O)[C@H](CCC(=O)O)NC(=O)[C@H](Cc2ccc(CC(=O)O)cc2)NC(C)=O)cc1 | 50 µM
12 | CC[C@H](C)[C@H](NC(=O)[C@H](CCC(=O)O)NC(=O)[C@H](CCC(=O)O)NC(=O)[C@H](Cc1ccc(CC(=O)O)cc1)NC(C)=O)C(=O)O (Ac-[Phe(4-CH2COOH)]EEI-OH) | 42 µM
13 | COc1ccc(CNC(=O)[C@H](CCC(=O)O)NC(=O)[C@H](Cc2ccc(NC(=O)C(=O)O)cc2)NC(=O)c2ccccc2)cc1 | 32 µM
14 | COc1ccc(CNC(=O)[C@H](CCC(=O)O)NC(=O)[C@H](Cc2ccc(C(O)C(=O)O)cc2)NC(=O)Cc2cccc3ccccc23)cc1 (stereo partly specified) | 2 µM
15 | COc1ccc(CNC(=O)[C@H](CCC(=O)O)NC(=O)[C@H](Cc2ccc(NC(=O)C(=O)O)cc2)NC(=O)Cc2ccccc2)cc1 | 17 µM
16 | COc1ccc(CNC(=O)[C@H](CCC(=O)O)NC(=O)[C@H](Cc2ccc(CS(=O)(=O)O)cc2)NC(=O)Cc2cccc3ccccc23)cc1 | 4 µM
